Reference: article PMC2764262 (Experimental cell research, 2008)

Tests used:
[1] = Circular dichroism spectroscopy, secondary structure; assay type: physicochemical; settings: 1 mg/ml in Hanks balanced salt solution, 37 °C, up to day 6 (WT: by day 3)
caspase-3 = experiment: Cleaved caspase-3 expression by Western blotting; assay type: cell-based, human; settings: HBMEC, 5 µM peptide, 18 h, FGF-2 20 ng/ml
[2] = system: human brain microvascular endothelial cells (HBMEC); experiment: Pseudo-capillary sprouting, microcarrier culture in fibrin gel; assay type: cell-based; settings: HBMEC on microcarriers in fibrin gel, FGF-2 20 ng/ml, 5 µM peptide, day 2
Akt = Akt phosphorylation by Western blotting; assay type: cell-based, human; settings: HBMEC, 5 µM peptide, 30 min, FGF-2 20 ng/ml; Western blot
[3] = system: human brain microvascular endothelial cells (HBMEC); experiment: BrdU labeling assay, proliferation induced by FGF-2; assay type: cell-based; settings: FGF-2 20 ng/ml, 48 h
FGF-2 = FGF-2 production by Western blotting; assay type: cell-based, human; settings: HBMEC, 5 µM peptide, 18 h; Western blot
[4] = system: human brain microvascular endothelial cells (HBMEC); experiment: BrdU labeling assay, cell proliferation; assay type: cell-based; settings: 25 µM peptide, 48 h, 0.1% FBS, no FGF-2
FGFR-1 = FGFR-1 phosphorylation; assay type: cell-based, human; settings: HBMEC, 5 µM peptide, FGF-2 20 ng/ml 15 min; IP anti-FGFR-1, anti p-Tyr
[5] = Peptide solubility on aging; settings: 1 mg/ml in Hanks' Balanced Salt Solution, 37 °C, up to 6 days; O.D. 280 nm after centrifugation

## E22Q: Synthetic Aβ (1–40) peptide bearing the E22Q (Dutch) mutation
[1]
  secondary structure by CD on further incubation: the β-sheet content increased
caspase-3
  caspase-3 activation with concomitant FGF-2 administration: failed to prevent caspase-3 activation
[2]
  reduction of pseudo-capillary sprouting area: nearly suppressed
Akt
  FGF-2-induced Akt phosphorylation: marked reduction
[3]; 1 µM peptide
  inhibition of FGF-2-induced BrdU incorporation: 60%
[3]; concentrations higher than 1 µM (up to 25 µM)
  inhibition of FGF-2-induced BrdU incorporation: > 90%
FGF-2
  FGF-2 expression: decreased expression
[4]
  inhibition of cell proliferation (BrdU incorporation): total inhibition
FGFR-1
  FGFR-1 phosphorylation in response to FGF-2: reduced phosphorylation to levels observed in quiescent cells
[5]
  solubility relative to the other peptides: lower values than those of WT
